Assay results reported in US11395847B2, “Acylated GLP-1/GLP-2 dual agonists” (Zealand Pharma A/S, priority 2016, dated 2022).
Where a SMILES comes first, the peptide text is derived from it.

What was measured:
human GLP-1 receptor = target: T1, human GLP-1 receptor (Homo sapiens, UniProt P43220); experiment: GLP-1 receptor potency assay (cAMP ALPHASCREEN, HEK293 cells stably expressing GLP-1 R); format: cell-based; details: cAMP response, HEK293 cells expressing human GLP-1 R
T1 construct: expressed in transfected cells
From the text: One useful in vitro assay for measuring GLP-1 and GLP-2 receptor activity is quantitation of cAMP, i.e. 3′-5′-cyclic adenosine monophosphate, which is a second messenger essential in many biological processes, and one of the most ubiquitous mechanisms for regulating cellular functions.
The cDNA encoding the human glucagon-like peptide 1 receptor (GLP-1 R) (primary accession number P43220) was cloned from the cDNA BC112126 (MGC:138331/IMAGE:8327594). The DNA encoding the GLP-1-R was amplified by PCR using primers encoding terminal restriction sites for subcloning. The 5′-end primers additionally encoded a near Kozak consensus sequence to ensure efficient translation. […] The PCR products encoding the GLP-1-R were subcloned into a mammalian expression vector containing a neomycin (G418) resistance marker. The mammalian expression vectors encoding the GLP-1-R were transfected into HEK293 cells by a standard calcium phosphate transfection method. 48 hours post-transfection, cells were seeded for limited dilution cloning and selected with 1 mg/ml G418 in the culture medium. Following 3 weeks in G418 selection clones were picked and tested in a functional GLP-1 receptor potency assay as described below.
The cAMP ALPHASCREEN® assay from Perkin Elmer was used to quantitate the cAMP response to activation of the GLP1 and GLP2 receptor, respectively. […] Data from test compounds eliciting an increase in the intracellular level of cAMP were normalized relative to the positive and negative control (vehicle) to calculate the EC50 and maximal response from the concentration response curve.

[1] = Chemical stability (RP-HPLC normalized purity after incubation at 40° C.); format: physicochemical; details: 14-day incubation, 0.2 mg/ml, normalized purity (area-%); for pH 7 normalized stability: pH 7, 40° C.; for pH 6 normalized stability: pH 6, 40° C.
In short: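 Peptide at 0.2 mg/ml final in water adjusted to pH 6, 7, 7.5 or 9, incubated at 40° C for 14 days. Purity measured as main-peak area-% by C18 RP-HPLC (acetonitrile/TFA/water gradient, UV 220 nm) and normalized to T=0 set at 100 for each pH.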

T1 sequence (P43220 24-463): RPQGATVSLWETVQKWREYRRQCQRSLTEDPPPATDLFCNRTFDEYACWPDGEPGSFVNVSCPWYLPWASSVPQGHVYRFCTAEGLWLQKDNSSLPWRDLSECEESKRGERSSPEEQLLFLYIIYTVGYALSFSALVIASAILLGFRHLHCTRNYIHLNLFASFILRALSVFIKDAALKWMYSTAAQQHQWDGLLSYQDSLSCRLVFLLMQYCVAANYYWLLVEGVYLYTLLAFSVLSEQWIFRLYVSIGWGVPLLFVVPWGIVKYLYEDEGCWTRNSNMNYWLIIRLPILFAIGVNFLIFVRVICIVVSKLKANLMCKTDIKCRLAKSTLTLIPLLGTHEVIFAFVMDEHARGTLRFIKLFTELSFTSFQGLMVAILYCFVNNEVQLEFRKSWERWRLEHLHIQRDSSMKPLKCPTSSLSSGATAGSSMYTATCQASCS

EC50 (human GLP-1 receptor)	pH 7 normalized stability [1]	pH 6 normalized stability [1]	SMILES
0.32 nM	A (>90% normalised stability)	–	CC[C@H](C)[C@H](NC(=O)[C@H](Cc1ccccc1)NC(=O)[C@H](CC(=O)O)NC(=O)[C@H](CCCNC(=N)N)NC(=O)[C@H](C)NC(=O)[C@H](C)NC(=O)[C@H](CC(C)C)NC(=O)[C@H](CCCCNC(=O)CC[C@H](NC(=O)CCCCCCCCCCCCCCCCC(=O)O)C(=O)O)NC(=O)[C@H](CC(=O)O)NC(=O)[C@H](CC(C)C)NC(=O)[C@@H](NC(=O)[C@@H](NC(=O)[C@H](C)NC(=O)[C@H](CC(C)C)NC(=O)[C@H](CCC(=O)O)NC(=O)[C@H](CO)NC(=O)[C@@H](NC(=O)[C@H](Cc1ccccc1)NC(=O)[C@H](CO)NC(=O)CNC(=O)[C@H](CCC(=O)O)NC(=O)C(C)(C)NC(=O)[C@@H](N)Cc1c[nH]cn1)[C@@H](C)O)[C@@H](C)O)[C@@H](C)CC)C(=O)N[C@@H](C)C(=O)N[C@@H](Cc1c[nH]c2ccccc12)C(=O)N[C@@H](CC(C)C)C(=O)N[C@H](C(=O)N[C@@H](CCC(=O)O)C(=O)N[C@@H](Cc1c[nH]cn1)C(=O)N[C@@H](CCCCN)C(=O)N[C@H](C(=O)N[C@H](C(=O)N[C@@H](CC(=O)O)C(=O)O)[C@@H](C)O)[C@@H](C)CC)[C@@H](C)CC [Compound 11] (HELM PEPTIDE1{H.[Aib].E.G.S.F.T.S.E.L.A.T.I.L.D.K.L.A.A.R.D.F.I.A.W.L.I.E.H.K.I.T.D}|PEPTIDE2{[O=C(O)CCCCCCCCCCCCCCCCC(=O)[*:2]].[gGlu]}$PEPTIDE1,PEPTIDE2,16:R3-2:R2$$$V2.0)
0.13 nM	A (>90% normalised stability)	A (>90% normalised stability)	CC[C@H](C)[C@H](NC(=O)[C@H](Cc1ccccc1)NC(=O)[C@H](CC(=O)O)NC(=O)[C@H](CCCNC(=N)N)NC(=O)[C@H](C)NC(=O)[C@H](C)NC(=O)[C@H](CCC(=O)O)NC(=O)[C@H](CCCCNC(=O)CC[C@H](NC(=O)CCCCCCCCCCCCCCCCC(=O)O)C(=O)O)NC(=O)[C@H](CC(=O)O)NC(=O)[C@H](CC(C)C)NC(=O)[C@@H](NC(=O)[C@@H](NC(=O)[C@H](C)NC(=O)[C@H](CC(C)C)NC(=O)[C@H](CCC(=O)O)NC(=O)[C@H](CO)NC(=O)[C@@H](NC(=O)[C@H](Cc1ccccc1)NC(=O)[C@H](CO)NC(=O)CNC(=O)[C@H](CCC(=O)O)NC(=O)C(C)(C)NC(=O)[C@@H](N)Cc1c[nH]cn1)[C@@H](C)O)[C@@H](C)O)[C@@H](C)CC)C(=O)N[C@@H](C)C(=O)N[C@@H](Cc1c[nH]c2ccccc12)C(=O)N[C@@H](CC(C)C)C(=O)N[C@H](C(=O)N[C@@H](CCC(=O)O)C(=O)N[C@@H](Cc1c[nH]cn1)C(=O)N[C@@H](CCCCN)C(=O)N[C@H](C(=O)N[C@H](C(=O)N[C@@H](CC(=O)O)C(=O)O)[C@@H](C)O)[C@@H](C)CC)[C@@H](C)CC [Compound 2] (HELM PEPTIDE1{H.[Aib].E.G.S.F.T.S.E.L.A.T.I.L.D.K.E.A.A.R.D.F.I.A.W.L.I.E.H.K.I.T.D}|PEPTIDE2{[O=C(O)CCCCCCCCCCCCCCCCC(=O)[*:2]].[gGlu]}$PEPTIDE1,PEPTIDE2,16:R3-2:R2$$$V2.0)
0.31 nM	B (>80% stability)	A (>90% normalised stability)	CC[C@H](C)[C@H](NC(=O)[C@H](Cc1ccccc1)NC(=O)[C@H](CC(=O)O)NC(=O)[C@H](CCCNC(=N)N)NC(=O)[C@H](C)NC(=O)[C@H](C)NC(=O)[C@H](CCC(N)=O)NC(=O)[C@H](CCCCNC(=O)CC[C@H](NC(=O)CCCCCCCCCCCCCCCCC(=O)O)C(=O)O)NC(=O)[C@H](CC(=O)O)NC(=O)[C@H](CC(C)C)NC(=O)[C@@H](NC(=O)[C@@H](NC(=O)[C@H](C)NC(=O)[C@H](CC(C)C)NC(=O)[C@H](CCC(=O)O)NC(=O)[C@H](CO)NC(=O)[C@@H](NC(=O)[C@H](Cc1ccccc1)NC(=O)[C@H](CO)NC(=O)CNC(=O)[C@H](CCC(=O)O)NC(=O)C(C)(C)NC(=O)[C@@H](N)Cc1c[nH]cn1)[C@@H](C)O)[C@@H](C)O)[C@@H](C)CC)C(=O)N[C@@H](C)C(=O)N[C@@H](Cc1c[nH]c2ccccc12)C(=O)N[C@@H](CC(C)C)C(=O)N[C@H](C(=O)N[C@@H](CCCCN)C(=O)N[C@@H](Cc1c[nH]cn1)C(=O)N[C@@H](CCCCN)C(=O)N[C@H](C(=O)N[C@H](C(=O)N[C@@H](CC(=O)O)C(=O)O)[C@@H](C)O)[C@@H](C)CC)[C@@H](C)CC [Compound 29] (HELM PEPTIDE1{H.[Aib].E.G.S.F.T.S.E.L.A.T.I.L.D.K.Q.A.A.R.D.F.I.A.W.L.I.K.H.K.I.T.D}|PEPTIDE2{[O=C(O)CCCCCCCCCCCCCCCCC(=O)[*:2]].[gGlu]}$PEPTIDE1,PEPTIDE2,16:R3-2:R2$$$V2.0)
0.27 nM	–	–	CC[C@H](C)[C@H](NC(=O)[C@H](Cc1ccccc1)NC(=O)[C@H](CC(=O)O)NC(=O)[C@H](CCCNC(=N)N)NC(=O)[C@H](C)NC(=O)[C@H](C)NC(=O)[C@H](CCC(N)=O)NC(=O)[C@H](CCCCNC(=O)COCCOCCNC(=O)[C@H](CCCCN)NC(=O)[C@H](CCC(=O)O)NC(=O)[C@H](CCCCN)NC(=O)CC[C@H](NC(=O)CCCCCCCCCCCCCCCCC(=O)O)C(=O)O)NC(=O)[C@H](CC(=O)O)NC(=O)[C@H](CC(C)C)NC(=O)[C@@H](NC(=O)[C@@H](NC(=O)[C@H](C)NC(=O)[C@H](CC(C)C)NC(=O)[C@H](CCC(=O)O)NC(=O)[C@H](CO)NC(=O)[C@H](CO)NC(=O)[C@H](Cc1ccccc1)NC(=O)[C@@H](NC(=O)CNC(=O)[C@H](CCC(=O)O)NC(=O)C(C)(C)NC(=O)[C@@H](N)Cc1c[nH]cn1)[C@@H](C)O)[C@@H](C)O)[C@@H](C)CC)C(=O)N[C@@H](C)C(=O)N[C@@H](Cc1c[nH]c2ccccc12)C(=O)N[C@@H](CC(C)C)C(=O)N[C@H](C(=O)N[C@@H](CCC(=O)O)C(=O)N[C@@H](Cc1c[nH]cn1)C(=O)N[C@@H](CCCCN)C(=O)N[C@H](C(=O)N[C@H](C(=O)N[C@@H](CC(=O)O)C(=O)O)[C@@H](C)O)[C@@H](C)CC)[C@@H](C)CC [Compound 49] (HELM PEPTIDE1{H.[Aib].E.G.T.F.S.S.E.L.A.T.I.L.D.K.Q.A.A.R.D.F.I.A.W.L.I.E.H.K.I.T.D}|PEPTIDE2{[O=C(O)CCCCCCCCCCCCCCCCC(=O)[*:2]].[gGlu].K.E.K.[O=C(COCCOCCN[*:1])[*:2]]}$PEPTIDE1,PEPTIDE2,16:R3-6:R2$$$V2.0)
1.8 nM	–	–	CC[C@H](C)[C@H](NC(=O)[C@H](CC(C)C)NC(=O)[C@H](Cc1c[nH]c2ccccc12)NC(=O)[C@H](C)NC(=O)[C@@H](NC(=O)[C@H](Cc1ccccc1)NC(=O)[C@H](CC(=O)O)NC(=O)[C@H](CCCNC(=N)N)NC(=O)[C@H](C)NC(=O)[C@H](C)NC(=O)[C@H](CCC(N)=O)NC(=O)[C@H](CCCCNC(=O)CC[C@H](NC(=O)CCCCCCCCCCCCCCCCC(=O)O)C(=O)O)NC(=O)[C@H](CC(=O)O)NC(=O)[C@H](CC(C)C)NC(=O)[C@@H](NC(=O)[C@@H](NC(=O)[C@H](C)NC(=O)[C@H](CC(C)C)NC(=O)[C@H](CCC(=O)O)NC(=O)[C@H](CO)NC(=O)[C@H](CO)NC(=O)[C@H](Cc1ccccc1)NC(=O)[C@@H](NC(=O)CNC(=O)[C@H](CCC(=O)O)NC(=O)C(C)(C)NC(=O)[C@@H](N)Cc1c[nH]cn1)[C@@H](C)O)[C@@H](C)O)[C@@H](C)CC)[C@@H](C)CC)C(=O)N[C@@H](C)C(=O)N[C@@H](Cc1c[nH]cn1)C(=O)N[C@@H](CCCCN)C(=O)N[C@H](C(=O)N[C@H](C(=O)N[C@@H](CC(=O)O)C(=O)O)[C@@H](C)O)[C@@H](C)CC [Compound 21] (HELM PEPTIDE1{H.[Aib].E.G.T.F.S.S.E.L.A.T.I.L.D.K.Q.A.A.R.D.F.I.A.W.L.I.A.H.K.I.T.D}|PEPTIDE2{[O=C(O)CCCCCCCCCCCCCCCCC(=O)[*:2]].[gGlu]}$PEPTIDE1,PEPTIDE2,16:R3-2:R2$$$V2.0)
0.25 nM	–	–	CC[C@H](C)[C@H](NC(=O)[C@H](CC(C)C)NC(=O)[C@H](Cc1c[nH]c2ccccc12)NC(=O)[C@H](C)NC(=O)[C@@H](NC(=O)[C@H](Cc1ccccc1)NC(=O)[C@H](CC(=O)O)NC(=O)[C@H](CCCNC(=N)N)NC(=O)[C@H](C)NC(=O)[C@H](C)NC(=O)[C@H](CC(C)C)NC(=O)[C@H](CCCCNC(=O)CC[C@H](NC(=O)CCCCCCCCCCCCCCCCC(=O)O)C(=O)O)NC(=O)[C@H](CC(=O)O)NC(=O)[C@H](CC(C)C)NC(=O)[C@@H](NC(=O)[C@@H](NC(=O)[C@H](C)NC(=O)[C@H](CC(C)C)NC(=O)[C@H](CCC(=O)O)NC(=O)[C@H](CO)NC(=O)[C@@H](NC(=O)[C@H](Cc1ccccc1)NC(=O)[C@@H](NC(=O)CNC(=O)[C@H](CCC(=O)O)NC(=O)C(C)(C)NC(=O)[C@@H](N)Cc1c[nH]cn1)[C@@H](C)O)[C@@H](C)O)[C@@H](C)O)[C@@H](C)CC)[C@@H](C)CC)C(=O)N[C@@H](C)C(=O)N[C@@H](Cc1c[nH]cn1)C(=O)N[C@@H](CCCCN)C(=O)N[C@H](C(=O)N[C@H](C(=O)N[C@@H](CC(=O)O)C(=O)O)[C@@H](C)O)[C@@H](C)CC [Compound 15] (HELM PEPTIDE1{H.[Aib].E.G.T.F.T.S.E.L.A.T.I.L.D.K.L.A.A.R.D.F.I.A.W.L.I.A.H.K.I.T.D}|PEPTIDE2{[O=C(O)CCCCCCCCCCCCCCCCC(=O)[*:2]].[gGlu]}$PEPTIDE1,PEPTIDE2,16:R3-2:R2$$$V2.0)
